Reference: patent US8697840B2, “Peptide inhibition of lung epithelial apoptosis and pulmonary fibrosis” (Board of Regents, The University of Texas System, priority 2008, dated 2014)

What was measured:
PAI-1 [1] = assay: Western blot of BAL fluid and lung homogenates of bleo-treated mice: PAI-1; type: in vivo, mouse; conditions: 40 μg bleomycin intranasally, day 7; for PAI-1 expression in lung homogenates: 10 mM peptide i.p. by 0.1 ml osmotic pump after 24 h
Protocol: (§1) Mice were treated intranasally with 50 μl saline (SAL; control) or an equal volume of a 40 μg bleomycin solution (Bleo). After 24 h, 10 mM PP-1 (“Bleo+PP-1”) or control peptide (Bleo+CP-1) were given intraperitoneally using a 0.1 ml osmotic pump. Lungs were excised on day 7, bronchoalveolar lavage (BAL) fluid (“B”), lung homogenates (“H”) and membrane proteins (uPAR) were analyzed by Western blotting using antibodies specific for the murine proteins. (The same blot (“H”) was then stripped and analyzed for β-actin confirm equivalent loading of the lanes)
(§2) Mice were treated intranasally with 50 μl saline or an equal volume of a 40 μg bleomycin solution. After 24 h, 10 mM PP-1 or the same concentration of control peptide CP-1 were given intraperitoneally using a 0.1 ml osmotic pump. Lungs were excised on day 7.
Lung tissue was chopped into small pieces with fine scissors and rinsed 3× with PBS. The tissues were then homogenized in 1 ml of extraction buffer (25 mM Tris-HCl, pH 7.9. 0.5 mM EDTA and 0.1 mM PMSF) and the homogenate was centrifuged at 12,000 g for 15 min at 4° C. The supernatant was removed and referred to as the crude extract. Protein content was measured using a BioRad protein assay kit. Cytosolic proteins were separated by SDS-PAGE and transferred to a nitrocellulose membrane which was blocked with 1% BSA in a wash buffer for 1 h at room temperature followed by overnight incubation with antibodies specific for uPA, PAI-1 or p53 in the same buffer at 4° C. Protein was detected by enhanced chemiluminescence (ECL). Membranes were stripped and immunoblotted for β-actin.
Mice were treated intranasally with saline (controls) are indicated (SAL). Mice receiving an equal volume of a 40 μg bleomycin solution are indicated (Bleo). Mice given PP-1 are indicated (PP-1) and those given control peptide are indicated (CP-1). BAL fluid is indicated (B), and lung homogenates (H) and membrane proteins (uPAR). Blots were probed with antibodies specific for the relevant murine proteins. (The same blot (H) was later stripped and analyzed for β-actin confirm equivalent loading of the lanes)

uPA [2] = assay: Western blot of lungs of bleo-treated mice: uPA; type: in vivo, mouse; conditions: 40 μg bleomycin intranasally, 10 mM peptide i.p. by 0.1 ml osmotic pump after 24 h, day 7
Protocol: as §1, §2
Lung tissue was chopped into small pieces with fine scissors and rinsed 3× with PBS. The tissues were then homogenized in 1 ml of extraction buffer (25 mM Tris-HCl, pH 7.9. 0.5 mM EDTA and 0.1 mM PMSF) and the homogenate was centrifuged at 12,000 g for 15 min at 4° C. […] Protein content was measured using a BioRad protein assay kit. […] Protein was detected by enhanced chemiluminescence (ECL). […]
Mice were treated intranasally with saline (controls) are indicated (SAL). […] (The same blot (H) was later stripped and analyzed for β-actin confirm equivalent loading of the lanes)

cleaved PARP = assay: IHC of lung sections of bleo-treated mice: cleaved PARP; type: in vivo, mouse; conditions: peptide 4.5 μM i.p. days 1 and 2, bleomycin 40 μg/50 μl intranasal day 2; up to 72 h
Protocol: On day 2 mice were treated with bleomycin (40 μg/50μl) by intranasal instillation. Mice were sacrificed 24, 48 and 72 h after later, lungs were excised, inflated and fixed in formalin, and […] sections were analyzed by immunohistochemistry (IHC) using an antibody specific for cleaved PARP.
(§3) For immunohistochemical (IHC) analysis, lungs were inflated at constant pressure of 20 cm H2O, removed and fixed overnight in 2% paraformaldehyde in PBS. Tissue was dehydrated by passage through a standard alcohol series and was embedded in paraffin. 5 μm sections were deparaffinized with xylene followed by incubation with 100% and 95% alcohol. After 10 min of antigen retrieval, the slides were incubated with H2O2 for 30 min to quench endogenous peroxidase. Slides were incubated overnight with the respective antibodies in PBS containing 0.1% Tween 20 and further processed using Lab vision kit (Freemont Calif.).

p53 = assay: IHC of lung tissue of bleo-treated mice: p53; type: in vivo, mouse; conditions: bleomycin-treated mice, 24-72 h
Protocol: as §3
(§4) An IHC study was conducted to analyze lung tissue for expression p53, uPA, uPAR, PAI-1 and cleaved caspase 3 (Table 2). […] These IHC observations were confirmed by Western blotting (see Example II and FIG. 5).

PAI-1 [3] = assay: IHC of lung tissue of bleo-treated mice: PAI-1; type: in vivo, mouse; conditions: bleomycin-treated mice, 24-72 h
Protocol: as §3, §4

uPAR = assay: IHC of lung tissue of bleo-treated mice: uPAR; type: in vivo, mouse; conditions: bleomycin-treated mice, 48-72 h
Protocol: as §3, §4

uPA [4] = assay: IHC of lung tissue of bleo-treated mice: uPA; type: in vivo, mouse; conditions: bleomycin-treated mice, 48-72 h
Protocol: as §3, §4

[5] = tested on: bleo-induced lung injury in the mouse; assay: Lung desmosine (elastin) after bleo-induced lung injury; type: in vivo; conditions: 50 μg Bleo intranasally; 10 mM peptide in 0.1 ml osmotic pump i.p. one day later; lungs after 21 days
Protocol: FIGS. 10A and 10B are graphs showing the effect of PP-1 on fibrosis following bleo-induced lung injury in the mouse. […] 24 h after bleo, 0.1 ml osmotic pump filled with 10 mM PP-1 (designated “Bleo+PP” in Figures) or CP1 control scrambled peptide (“Bleo+CP1”) were implanted intraperitoneally. Lungs were harvested after 21 days, homogenized and the homogenates were subjected to the analysis of hydroxyproline or desmosine levels.
Lungs were harvested after 21 days, homogenized and the homogenates were subjected to the analysis of hydroxyproline as above (FIG. 10A) or desmosine (FIG. 10B). The effect of PP-1 on fibrosis in bleo-induced mouse lung injury was evaluated. Mice were treated with saline or 50 μg Bleo intranasally were implanted one day later with, 0.1 ml osmotic pumps i.p. The pumps were filled with either 10 mM (2.92 mg/100 μl) PP-1 (“Bleo+PP-1”) or control scrambled peptide CP-1 (“Bleo+CP-1”).

[6] = tested on: bleo-induced collagen deposition in mouse lung; assay: Mason's Trichrome stain for collagen of lung sections of bleo-treated mice; type: in vivo; conditions: for Collagen content in lung section: bleo-treated animals, peptide one day after bleo, day 21, trichrome stain
Protocol: FIG. 13 is a set of photomicrographs showing that PP-1 prevents bleo-induced collagen deposition in mouse lung. Mice were treated with bleo (50 μg/ml) by intranasal instillation followed by treatment with PP-1 (10 nM) or control peptide CP-1 on day 2. Lungs were excised on day 21, inflated and fixed in formalin, a sectioned into […] sections which were subjected to Mason's Trichrome stain (a three-color stain that stains cell nuclei red, collagen green or blue, and cytoplasm red). Blue staining indicates collagen deposition in bleo-treated lung sections.
FIGS. 14A & 14B is a series of photomicrographs of lung epithelial tissue stained with Mason's trichrome stain for collagen (FIG. 10A) and by TUNEL staining for apoptosis (FIG. 10B). Bleo-treated animals were instilled with either PP-1, PP-2 or control peptide CP-1 one day after bleo treatment, The lungs were removed on day 21, subjected to the staining procedures and examined for collagen accumulation or apoptosis.
Collagen deposition in mouse lung after bleo treatment was investigated. Mice were treated with bleo (50 μg/ml) by intranasal instillation followed by treatment with PP-1 (10 nM) (designated as PP in Figure) or control peptide CP-1 (designated CP in FIG. 13) on day 2. Lungs were excised on day 21, inflated and fixed in formalin, a sectioned into […] sections which were subjected to Mason's Trichrome stain (a three-color stain that stains cell nuclei red, collagen green or blue, and cytoplasm red).
A comparison was made of normal and bleo-treated lung, and the effect of PP-1 and PP-2 on the bleo-treated lungs were examined. Animals were treated with bleo and peptides as above. Lung tissue was removed at day 21 and stained with Mason's trichrome stain for collagen and subjected to TUNEL staining for apoptosis.

Src kinase = conditions: Beas2B cells, bleo 40 μg/ml, 24 h, Western blot
Protocol: Cell lysates were analyzed for activating tyrosine (Y418) phosphorylation and inhibitory tyrosine (Y529) phosphorylation by Western blotting using phospho-specific antibodies. The same membrane was stripped and analyzed for total Src (Src-2) kinase and β-actin expression by Western blotting using specific antibodies.

Substance | PAI-1 expression in lung homogenates (PAI-1 [1]) | PAI-1 in BAL fluid (PAI-1 [1]) | uPA levels in lung (uPA [2]) | cleavage (degradation) of PARP in lung (cleaved PARP) | p53 expression in lung tissue (IHC) (p53) | PAI-1 expression in lung tissue (IHC) (PAI-1 [3]) | uPAR levels in lung tissue (IHC) (uPAR) | uPA levels in lung tissue (IHC) (uPA [4]) | lung desmosine levels [5] | Collagen content in lung section [6] | Src kinase activation (Y418 / Y529 phosphorylation) (Src kinase) | bleo-induced collagen deposition (Mason's Trichrome stain) ([6]; bleo 50 μg/ml intranasal, PP-1 (10 nM) on day 2, lungs day 21) | development of bleo-induced lung fibrosis ([6]; conclusion from Table 3, day 21)
Bleomycin | increased | increased | suppression | induced cleavage of PARP after 72 h of exposure | induced p53 expression beginning at 48 h and increasing up to 72 h | PAI-1 expression was also increased in bleomycin-treated mice beginning 24 h after treatment | uPA and uPAR levels fell between 48-72 h of bleomycin exposure | uPA and uPAR levels fell between 48-72 h of bleomycin exposure | significant increase in lung hydroxyproline or desmosine levels | Increased | Src kinase activation through phosphorylation of Src Y418 | – | –
DGIWKASFTTFTVTKYWFYR [PP-1] | inhibited the increased p53 and PAI-1 expression | – | enhanced the suppressed uPA and uPAR levels | reversed such PARP degradation | blocked bleomycin induced p53 expression | reduced this PAI-1 expression | reversed this suppression | reversed this suppression | significantly reduced, to normal levels | Normal | inhibited bleo-induced activation of Src Y418 through phosphorylation of Src Y529 | prevented bleo-induced collagen deposition | prevented the development of bleo-induced lung fibrosis
